Test systems include BT-549; HCT-116; HCT-15; HOP-92; HT-29; M14; Malme-3M; NCI-H23; NCI-H460; OVCAR-3; OVCAR-8; RPMI-8226; SF-268; SF-295; SK-MEL-28; SW-620; TK-10; U-251; UACC-257; UO-31.
What all share (assay): growth of human tumour cells (NCI), 48 h

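96-well plates; 48 h exposure; 5 concentrations. Endpoints by linear interpolation between flanking doses. Not reached: highest tested concentration assigned. GI50 = concentration required for 50% inhibition of growth.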 Calls of active or inactive are those of the source. Cut-off read from the data, not from the text of the source: active = GI50 up to about 1.1 µM and inactive = higher.

On to `COC(=O)c1c(C)[nH]c2c1C(=O)C(=O)c1nc(C)c(C)nc1-2`, for which the GI50 is 10.9 µM (inactive) in the assay on BT-549; 4.28 µM (inactive) in the assay on HCT-116; 9.98 µM in the assay on HCT-15; 5.79 µM (inactive) with HOP-92; 14 µM (inactive) in the assay on HT-29; 10.7 µM (inactive) with M14. The GI50 in the assay on Malme-3M was 3.58 µM (inactive); in the assay with NCI-H23, 10.2 µM (inactive); with NCI-H460 it was 5.27 µM (inactive); in the assay on OVCAR-3, 9.79 µM (inactive); in the assay with OVCAR-8 it was 10.2 µM (inactive); in the assay with RPMI-8226, 10.2 µM (inactive). In addition, the GI50 with SF-268 was 9.53 µM (inactive); with SF-295, 4.54 µM (inactive); in the assay on SK-MEL-28, 11.1 µM (inactive); with SW-620, 10.8 µM (inactive); with TK-10 it was 3.6 µM (inactive); in the assay on U-251 it was 4.84 µM (inactive). The GI50 in the assay on UACC-257 was 11 µM (inactive); in the assay with UO-31, 10.1 µM (inactive).

In the case of `CN1CCc2cc3c(c4c2C1C(O)c1ccccc1-4)OCO3` (stereo not given), the GI50 in the assay on BT-549 is 3.86 µM (inactive); in the assay on HCT-116, 3.68 µM (inactive); with HCT-15, 3.59 µM; in the assay with HOP-92, 2.16 µM (inactive); with HT-29 it was 3.5 µM (inactive); in the assay on M14, 5.12 µM (inactive). For the same compound, the GI50 in the assay with Malme-3M is 8 µM (inactive); in the assay on NCI-H23, 12 µM (inactive); in the assay with NCI-H460 it was 3.33 µM (inactive); in the assay with OVCAR-3, 14.4 µM (inactive); in the assay on OVCAR-8 it was 7.53 µM (inactive); in the assay with RPMI-8226, 7.01 µM (inactive). For the same compound, the GI50 is 6.3 µM (inactive) in the assay on SF-268; 5.69 µM (inactive) with SF-295; 20.2 µM (inactive) with SK-MEL-28; 7.53 µM (inactive) in the assay on SW-620; 14.2 µM (inactive) in the assay on TK-10; 6.07 µM (inactive) in the assay on U-251. Also, the GI50 in the assay with UACC-257 is 7.19 µM (inactive); with UO-31, 6.1 µM (inactive).

Take `O=c1c2nc3ccccc3c(=O)n2ncn1-c1ccccc1Cl`: the GI50 was > 100 µM (inactive) in the assay on BT-549; > 100 µM (inactive) in the assay on HCT-116; > 100 µM with HCT-15; > 100 µM (inactive) in the assay on HOP-92; > 100 µM (inactive) in the assay with HT-29; > 100 µM (inactive) in the assay on M14. The GI50 in the assay on Malme-3M, in the assay with NCI-H23, with NCI-H460, in the assay with OVCAR-3, in the assay with OVCAR-8 and in the assay with RPMI-8226 was > 100 µM (inactive) in each case. In addition, the GI50 with SF-268, in the assay with SF-295, in the assay with SK-MEL-28, in the assay on SW-620, in the assay on TK-10 and with U-251 was > 100 µM (inactive) each time. Also, the GI50 in the assay with UACC-257 and with UO-31 was > 100 µM (inactive) each time.

`COc1cc(C(=O)NC2CCc3cc(OC)c(OC)c(OC)c3-c3ccc(OC)c(=O)cc32)cc(OC)c1OC` (stereo not given): the GI50 is 0.083 µM (active) in the assay with BT-549; 0.043 µM (active) in the assay on HCT-116; 3.53 µM with HCT-15; 0.0592 µM (active) in the assay on HOP-92; 0.0467 µM (active) with HT-29; 0.202 µM (active) in the assay on M14. In addition, the GI50 with Malme-3M is 0.141 µM (active); with NCI-H23 it was 0.0809 µM (active); in the assay on NCI-H460, 0.143 µM (active); in the assay with OVCAR-3 it was 0.0372 µM (active); in the assay on OVCAR-8 it was 0.201 µM (active); in the assay with RPMI-8226, 0.0279 µM (active). Besides, the GI50 with SF-268 is 0.0828 µM (active); in the assay with SF-295, 0.153 µM (active); with SK-MEL-28, 0.192 µM (active); in the assay on SW-620, 0.0521 µM (active); in the assay on TK-10, 1.49 µM (inactive); in the assay with U-251, 0.0555 µM (active). The GI50 was 0.0938 µM (active) with UACC-257 and 10.9 µM (inactive) with UO-31.

On to `O=[N+]([O-])c1ccc(/C=C(/c2ccc([N+](=O)[O-])o2)S(=O)(=O)c2ccccc2)cc1`, for which the GI50 in the assay with BT-549 is 36.1 µM (inactive); in the assay with HCT-116, 30.9 µM (inactive); in the assay on HCT-15, 26.9 µM; in the assay on HOP-92, > 100 µM (inactive); in the assay on HT-29, 41.1 µM (inactive); in the assay with M14, 56.2 µM (inactive). For the same compound, the GI50 was 25.2 µM (inactive) in the assay with Malme-3M; 59 µM (inactive) in the assay on NCI-H23; > 100 µM (inactive) with NCI-H460; 97.9 µM (inactive) in the assay on OVCAR-3; 29.4 µM (inactive) in the assay with OVCAR-8; 13.7 µM (inactive) in the assay with RPMI-8226. Besides, the GI50 with SF-268 is 95.9 µM (inactive); with SF-295, > 100 µM (inactive); in the assay with SK-MEL-28, > 100 µM (inactive); with SW-620, 52 µM (inactive); in the assay with TK-10, > 100 µM (inactive); with U-251 it was 73.5 µM (inactive). The values for the GI50 with UACC-257 and with UO-31 were 29.4 µM (inactive) and > 100 µM (inactive), respectively.

Regarding `CC(=O)OC1=CC(n2cc(F)c(=O)[nH]c2=O)OC(C)C1=O` (stereo not given), the GI50 in the assay on BT-549 was 22.2 µM (inactive); in the assay on HCT-116, 10.8 µM (inactive); in the assay on HCT-15, 8.95 µM; in the assay on HOP-92 it was > 33.2 µM (inactive); in the assay on HT-29, 10.7 µM (inactive); in the assay with M14, 61.2 µM (inactive). Further, the GI50 in the assay with Malme-3M is 19.6 µM (inactive); in the assay with NCI-H23 it was 19.1 µM (inactive); with NCI-H460 it was 4.59 µM (inactive); in the assay on OVCAR-3, 25.3 µM (inactive); in the assay with OVCAR-8 it was 40.7 µM (inactive); in the assay on RPMI-8226, 26.5 µM (inactive). The GI50 in the assay on SF-268 is 81.5 µM (inactive); in the assay with SF-295, 48.9 µM (inactive); in the assay with SK-MEL-28 it was 17.7 µM (inactive); with SW-620, 59 µM (inactive); in the assay on TK-10, > 77.4 µM (inactive); with U-251 it was > 85.7 µM (inactive). For the same compound, the GI50 in the assay on UACC-257 is 57.1 µM (inactive); with UO-31 it was 13.5 µM (inactive).

In the case of `Cc1occc1/C(S)=N\c1ccc(Cl)c(C(=O)OCC2CC2)c1`, the GI50 is 22.7 µM (inactive) in the assay on BT-549; 43.9 µM (inactive) in the assay on HCT-116; 31.5 µM with HCT-15; 30.8 µM (inactive) in the assay on HOP-92; 34.7 µM (inactive) in the assay on HT-29; 85.5 µM (inactive) in the assay with M14. In addition, the GI50 in the assay on Malme-3M is 88.5 µM (inactive); in the assay with NCI-H23 it was 58.6 µM (inactive); in the assay on NCI-H460, 57.9 µM (inactive); in the assay with OVCAR-3, 52.2 µM (inactive); in the assay with OVCAR-8, 39.9 µM (inactive); in the assay with RPMI-8226, 23.1 µM (inactive). The GI50 with SF-268 was 36.1 µM (inactive); with SF-295, 29.4 µM (inactive); in the assay with SK-MEL-28, 72.6 µM (inactive); in the assay on SW-620, 54.7 µM (inactive); with TK-10, 34.8 µM (inactive); in the assay with U-251 it was 95.3 µM (inactive). Moreover, the GI50 with UACC-257 was 22.3 µM (inactive); in the assay on UO-31, 58.5 µM (inactive).

Regarding `O=C1CNNC(CSc2nc3ccc(I)cc3c(=O)n2Cc2ccccc2)=N1`, the GI50 in the assay with BT-549 is 27.5 µM (inactive); with HCT-116, 20.8 µM (inactive); with HCT-15, 32 µM; in the assay on HOP-92, 22.7 µM (inactive); in the assay with HT-29, 33.7 µM (inactive); with M14, 36.1 µM (inactive). Besides, the GI50 is 23.9 µM (inactive) in the assay with Malme-3M; 31.6 µM (inactive) in the assay with NCI-H23; 30.9 µM (inactive) in the assay with NCI-H460; 18.6 µM (inactive) in the assay on OVCAR-3; 26.5 µM (inactive) in the assay with OVCAR-8; 22.6 µM (inactive) with RPMI-8226. Besides, the GI50 in the assay with SF-268 is 24.7 µM (inactive); in the assay on SF-295, 20.4 µM (inactive); with SK-MEL-28 it was 20.9 µM (inactive); in the assay with SW-620, 42.4 µM (inactive); in the assay on TK-10, 30.1 µM (inactive); in the assay with U-251 it was 21.4 µM (inactive). In addition, the GI50 in the assay with UACC-257 was 26.4 µM (inactive); with UO-31, 1.24 µM (inactive).

Turning to `COc1cc2[nH]c3c(c2cc1OC)CCN[C@@]31CC[C@@]2(CC3c4c(cc(OC)c(O)c42)CCN3C)C[C@@H]1OC` (stereo not given in full), the GI50 in the assay with BT-549 is 25.2 µM (inactive); in the assay on HCT-116 it was 28.6 µM (inactive); in the assay on HCT-15, 30.3 µM; in the assay on HOP-92, 22.2 µM (inactive); in the assay with HT-29, 26.2 µM (inactive); with M14, 18 µM (inactive). Moreover, the GI50 with Malme-3M is 18.5 µM (inactive); in the assay with NCI-H23, > 79.1 µM (inactive); in the assay with NCI-H460, 39.4 µM (inactive); in the assay with OVCAR-3, 53.2 µM (inactive); in the assay on OVCAR-8 it was 30.9 µM (inactive); with RPMI-8226, 25.2 µM (inactive). Further, the GI50 in the assay on SF-268 is 47.1 µM (inactive); in the assay with SF-295 it was 21.2 µM (inactive); in the assay with SK-MEL-28, 17.9 µM (inactive); with SW-620, 32.8 µM (inactive); with TK-10 it was 29.8 µM (inactive); in the assay with U-251, 29.2 µM (inactive). Besides, the GI50 was 17.8 µM (inactive) with UACC-257 and 20.6 µM (inactive) with UO-31.

Take `COc1ccc(/C=C(/C)[N+](=O)[O-])cc1`: the GI50 in the assay on BT-549 was 2.75 µM (inactive); in the assay with HCT-116, 1.75 µM (inactive); in the assay on HCT-15 it was 2.28 µM; in the assay with HOP-92 it was 2 µM (inactive); with HT-29, 3.1 µM (inactive); with M14, 3.18 µM (inactive). Further, the GI50 in the assay with Malme-3M was 2.11 µM (inactive); in the assay with NCI-H23, 2.03 µM (inactive); in the assay on NCI-H460 it was 2.18 µM (inactive); in the assay on OVCAR-3 it was 1.82 µM (inactive); in the assay with OVCAR-8 it was 2.22 µM (inactive); with RPMI-8226, 0.394 µM (active). Further, the GI50 was 3.15 µM (inactive) in the assay with SF-268; 6.84 µM (inactive) in the assay with SF-295; 2.65 µM (inactive) with SK-MEL-28; 2.01 µM (inactive) in the assay with SW-620; 1.82 µM (inactive) in the assay on TK-10; 1.62 µM (inactive) in the assay on U-251. Moreover, the GI50 is 1.5 µM (inactive) with UACC-257 and 1.67 µM (inactive) in the assay with UO-31.

For the origin of these results see ChEMBL document CHEMBL1201862, “PubChem BioAssay data set” (2004).
